Test results from US10668039B2, “Methods for treatment of adenoid cystic carcinoma” (THE CHILDREN'S MEDICAL CENTER CORPORATION, priority 2016, dated 2020).
“Also recorded” adds a separate entry of the source.

Legend:
[1] = system: mpeg1:mCherry positive cells; assay: Confocal imaging of CHT, mpeg1:mCherry positive cells; assay type: in vivo, zebrafish; conditions: 10 μM, treated 48-72 hpf, imaged at 72 hpf
Procedure: Confocal imaging: Double transgenic c-myb:GFP; lyz:dsRed or c-myb:GFP; mpeg1:mCherry embryos from the same clutch were treated between 48-72 hpf (n=4 biological replicates per treatment group) with 10 μM ATRA diluted in E3. Live 72 hpf embryos were embedded in 0.8% low-melting point agarose containing 0.04 mg/mL Tricaine and imaged on a Nikon Eclipe Ti microscope with 20× Plan-Apo DIC N.A. 0.75. CHT cells were counted in Z-stack image projections processed on Imaris software (Bitplane).

U937 cells = assay: U937 proliferation, CellTiter-Glo; assay type: cell-based, human; conditions: 2 days (48 hours) of treatment, dose response
Procedure: Cell culture: U937 cells were grown in RPMI 1640 (Life Technologies), 10% heat inactivated FBS, and 1% Penicillin-Streptomycin (Invitrogen). CellTiter-Glo Luminescent Cell Viability Assay (Promega) was performed as per manufacturer's instructions. Cell viability was assessed at day 2.
Proliferation assays: U937 cells (ATCC) were grown in RPMI 1640 medium (Gibco) supplemented with 10% FBS and 1% Penicillin-Streptomycin (Gibco) and cultured in a 37° C. incubator with 5% CO2. U937 cells are listed in the database of commonly misidentified cell lines maintained by ICLAC, but authentic stocks are available and certified by ATCC based on DNA short-tandem repeat analysis. […] U937 cells were tested every other week for mycoplasma contamination using the MycoAlert Mycoplasma Detection Kit (Lonza) and consistently confirmed to be negative. Cells were seeded at an initial density of 1,150 cells/well (96 well plate) with chemicals at the concentrations indicated. After 48 hours, cell proliferation rates were determined using CellTiter-Glo (Promega) luminescent cell viability assay as per the manufacturer's instructions.

RARα = assay: Western blot of ACC primagrafts, RARα; assay type: in vivo, human; conditions: long-term ACC x11 and short-term (3 days) ACC x5M1 primagrafts
Text: Primagraft experiments: For in vivo drug testing, ACC tumor fragments from host animals were implanted subcutaneously into the flank of nude mice (CRL: ATH/NU). Once tumors reached 125-250 mm3, mice were randomized to receive vehicle or drug diluted in 10:90 DMSO:10% hydroxypropyl-beta-cyclodextrin orally until controls reached a tumor volume endpoint of 1-2 cm3 (4-9 mice per group: x5M1 and x6, 4 treated vs. 9 vehicle controls; x9, 4 treated vs. 5 vehicle controls; x11, 5 treated vs. 8 vehicle controls). Mice were treated with ATRA (ACC x6 and x11: 4 mg/mL, 0.2 mL flat dose; ACC×9: 3 mg/mL, 0.2 mL flat dose) or isotretinoin (30 mg/mL, 0.2 mL flat dose). Tumor growth was monitored and mice weighed twice weekly and studies ended when final group reached tumor volume endpoint. No statistical methods were employed to determine the sample size, and no blinding of investigators was performed. […]
Western blots: ACC x11 (from long-term tumor growth inhibition studies) and ACC x5M1 (from short-term kinetics studies) primagrafts were mechanically homogenized in RIPA lysis buffer (Thermo Scientific) supplemented by addition of complete protease inhibitor cocktail (Roche). Protein concentrations were determined by DC protein assay (BioRad).

**Q.** What does the source list for `CC(C=CC1=C(C)CCCC1(C)C)=CC=C/C(C)=C/C(=O)O` [ATRA, (E)-3,7-dimethyl-9-(2,6,6-trimethyl-1-cyclo-hexen-1-yl)-2,4,6,8-nonatetraenoic acid]?
**A.** mpeg1:mCherry+ cells in the CHT [1]: no significant difference; also recorded: no significant effect; U937 proliferation (CellTiter-Glo) (U937 cells): inhibited; RARα protein expression (RARα): increased
